According to patent publication US20260199500A1, “Camptothecin Derivative, Conjugate Thereof, Preparation Method Therefor and Medical Use Thereof” (priority 2023, published 2026):
Like-named read-outs stand apart in the source and are kept apart here.

What was measured:
N87 gastric cancer cells = experiment: Inhibitory activity of compounds on N87 gastric cancer cells (CellTiter-Glo, 144 h); assay type: cell-based; conditions: for IC50 on N87 cells, ratio to DXD (retest): samples retested together, ratio of measured IC50 to DXD
Description: (§1) On the day of the experiment, the cells were digested with 0.25% trypsin (Gibco, 25200-072), filtered through a 40 μm sieve, diluted with the corresponding medium to a cell density of 1×10^4 cells/mL, and inoculated into a 96-well white cell culture plate (Beyotime, FCP968), with 100 μL of cells added per well. The culture plate was placed in a 37° C. incubator (Thermo 311) containing 5% C02 and incubated for 24 hours. On the second day, the samples to be tested were prepared as a stock solution at a final concentration of 1M in DMSO (Sigma, D1650), then diluted with the corresponding medium to a final concentration of 200 nM, and subjected to four-fold serial dilutions, resulting in a total of 9 concentrations. 100 μL of the diluted sample was added to each well of the 96-well plate. The plate was placed in a 37° C. incubator containing 5% CO2 and incubated for 144 hours. The cell culture plate was then removed, and 100 μL of the cell viability assay reagent (CellTiter-Glo® Luminescent Cell Viability Assay, Promega, G7571) was added to each well. The reaction was carried out in the dark at room temperature for 5 minutes. Luminescence values were read using a microplate reader (TECAN SPARK), and data were processed using Graphpad Prism 7 software.
(§2) PY—Y is referenced in the document (WO2022170971A1); and PY-A is referenced in the document (WO2021148501A1).

[1] = system: MDA-MB-468 breast cancer cells; experiment: Inhibitory activity of compounds on MDA-MB-468 breast cancer cells (CellTiter-Glo); assay type: cell-based; conditions: for IC50 on 468 cells, ratio to DXD (retest): samples retested together, ratio of measured IC50 to DXD
Description: as §1, §2

H82 (SCLC) cells = experiment: Inhibition of H82 cells by compounds; assay type: cell-based; conditions: PY-X (DXD) set to 1
Description: as §1

H1650 (NSCLC) cells = experiment: Inhibition of H1650 cells by compounds; assay type: cell-based; conditions: PY-X (DXD) set to 1
Description: as §1

H1437 (NSCLC) cells = experiment: Inhibition of H1437 cells by compounds; assay type: cell-based; conditions: PY-X (DXD) set to 1
Description: as §1

SW1573 (NSCLC) cells = experiment: Inhibition of SW1573 cells by compounds; assay type: cell-based; conditions: PY-X (DXD) set to 1
Description: as §1

[2] = system: PANC-1 (Pancreatic) cells; experiment: Inhibition of PANC-1 cells by compounds; assay type: cell-based; conditions: PY-X (DXD) set to 1
Description: as §1

Colo-205 (Colon) cells = experiment: Inhibition of Colo-205 cells by compounds; assay type: cell-based; conditions: PY-X (DXD) set to 1
Description: as §1

HT-29 (Colon) cells = experiment: Inhibition of HT-29 cells by compounds; assay type: cell-based; conditions: PY-X (DXD) set to 1
Description: as §1

A549 (NSCLC) cells = experiment: Inhibition of A549 cells by compounds; assay type: cell-based; conditions: PY-X (DXD) set to 1
Description: as §1

[3] = system: SW1990 (Pancreatic) cells; experiment: Inhibition of SW1990 cells by compounds; assay type: cell-based; conditions: PY-X (DXD) set to 1
Description: as §1

DMS53 (SCLC) cells = experiment: Inhibition of DMS53 cells by compounds; assay type: cell-based; conditions: PY-X (DXD) set to 1
Description: as §1

[4] = Log D of small molecules (1-octanol / phosphate buffer pH 2.5 and pH 7.4, LC-MS/MS); assay type: physicochemical
Description: (1) Preparation of 100 mM phosphate buffer (PB) solution at pH 2.5 and pH 7.4 respectively: • a. Preparation of a solution of 100 mM H3PO4 in water: 14.7 M H3PO4 was diluted with water to a concentration of 100 mM H3PO4, and the pH was measured to be approximately 1.8. • b. Preparation of 100 mM NaH2PO4: 5.999 g of NaH2PO4 was dissolved in 500 mL of water and the pH was measured to be approximately 4.5. • c. Preparation of 100 mM Na2HPO4: 7.098 g of Na2HPO4 was dissolved in water to a volume of 500 mL and the pH was measured to be approximately 9.4. • d. Preparation of 100 mM PB (pH 2.5): 15 mL of 100 mM H3PO4 was added to a 50 mL tube, and then pH was adjusted to 2.5±0.05 with 100 mM NaH2PO4. • d. Preparation of 100 mM PB (pH 7.4): 15 mL of 100 mM Na2HPO4 was added to a 50 mL tube, and then pH was adjusted to 7.4±0.05 with 100 mM NaH2PO4.
(2) Saturation of PBs (pH 2.5 and pH 7.4) with 1-octanol: 10 mL of 1-octanol was added to 100 mL of 100 mM PBs (pH 2.5 and pH 7.4), and the mixture was shaken vigorously, and then allowed to stand overnight at room temperature for later use.
(3) Saturation of 1-octanol with PBs (pH 2.5 and pH 7.4): 10 mL of 100 mM PBs (pH 2.5 and pH 7.4) was added to 100 mL of 1-octanol, and the mixture was shaken vigorously, and then allowed to stand overnight at room temperature for later use.
2.1) 2 μL of 10 mM DMSO stock solution of the test compound were dispensed into test tubes, in duplicate.
2.2) 149 μL of PB saturated with 1-octanol (pH 2.5 and 7.4) were added to the tubes.
2.3) 149 μL of PB (pH 2.5 and 7.4) saturated with 1-octanol were added to the corresponding tubes.
2.4) Each tube was vigorously mixed for 2 minutes, then shaken at 800 rpm for 1 hour at room temperature.
2.5) The tubes were centrifuged at 4000 rpm for 5 minutes at room temperature.
2.6) Appropriate volumes of the buffer phase and 1-octanol phase samples were aliquoted.
2.7) These samples were diluted and analyzed using LC-MS/MS without running a calibration curve.
2.8) Data analysis: The log D value of each compound was calculated using the following formula: f

H358 (NSCLC) cells = experiment: Inhibition of H358 cells by compounds; assay type: cell-based; conditions: PY-X (DXD) set to 1
Description: as §1

H1975 (NSCLC) cells = experiment: Inhibition of H1975 cells by compounds; assay type: cell-based; conditions: PY-X (DXD) set to 1
Description: as §1

H23 (NSCLC) cells = experiment: Inhibition of H23 cells by compounds; assay type: cell-based; conditions: PY-X (DXD) set to 1
Description: as §1

FADU (HNSCC) cells = experiment: Inhibition of FADU cells by compounds; assay type: cell-based; conditions: PY-X (DXD) set to 1
Description: as §1

OVCAR3 (Ovarian) cells = experiment: Inhibition of OVCAR3 cells by compounds; assay type: cell-based; conditions: PY-X (DXD) set to 1
Description: as §1

PA-1 (Ovarian) cells = experiment: Inhibition of PA-1 cells by compounds; assay type: cell-based; conditions: PY-X (DXD) set to 1
Description: as §1

Molecule	IC50 on N87 cells, ratio to DXD (retest) (N87 gastric cancer cells)	IC50 on 468 cells, ratio to DXD (retest) [1]	IC50 in H82 cells, ratio to DXD (H82 (SCLC) cells)	IC50 in H1650 cells, ratio to DXD (H1650 (NSCLC) cells)	IC50 in H1437 cells, ratio to DXD (H1437 (NSCLC) cells)	IC50 in SW1573 cells, ratio to DXD (SW1573 (NSCLC) cells)	IC50 in PANC-1 cells, ratio to DXD [2]	IC50 in Colo-205 cells, ratio to DXD (Colo-205 (Colon) cells)	IC50 in HT-29 cells, ratio to DXD (HT-29 (Colon) cells)	IC50 in A549 cells, ratio to DXD (A549 (NSCLC) cells)	IC50 in SW1990 cells, ratio to DXD [3]	IC50 in DMS53 cells, ratio to DXD (DMS53 (SCLC) cells)	also measured
CC[C@@]1(O)C(=O)OCc2c1cc1n(c2=O)Cc2c-1nc1cc(F)c(C)c3c1c2[C@@H](NC(=O)OCCO)CC3 [PY-4Car, 2-hydroxyethyl((1S,9S)-9-ethyl-5-fluoro-9-hydroxy-4-methyl-10,13-dioxy-2,3,9,10,13,15-hexahydro-1H,12H-benzo[de]pyran[3′,4:6,7]indolizino[1,2-b]quinolin-1-yl)carbamate]	0.3112	0.5193	0.4523	0.4491	0.6526	0.3187	0.4763	0.2923	0.3312	0.4832	0.4822	0.5151	logD ([4]; pH 2.5): 2.1; logD ([4]; pH 7.4): 2.09
CC[C@@]1(O)C(=O)OCc2c1cc1n(c2=O)Cc2c-1nc1cc(F)c(CN)c3c1c2CCC3 [PY-16, (S)-4-(aminomethyl)-9-ethyl-5-fluoro-9-hydroxy-1,2,3,9,12,15-hexahydro-10H,13H-benzo[de]pyrano[3′,4′:6,7]indolizino[1,2-b]quinolin-10,13-dione]	–	–	0.3391	0.1421	0.2768	0.2256	0.1325	0.3082	0.1933	0.2053	0.4346	0.5137	–
CC[C@@]1(O)C(=O)OCc2c1cc1n(c2=O)Cc2c-1nc1cc(F)c(C)c3c1c2[C@@H](NC(=O)OCCCCO)CC3 [PY-4Car2, 4-hydroxybutyl((1S,9S)-9-ethyl-5-fluoro-9-hydroxy-4-methyl-10,13-dioxo-2,3,9,10,13,15-hexahydro-1H,12H-benzo[de]pyrano[3′,4′:6,7]indolizino[1,2-b]quinolin-1-yl)carbamate]	0.5046	0.8170	0.5803	0.7384	0.9590	0.4766	0.4865	0.4478	0.4854	0.5433	0.3573	–	logD ([4]; 1-octanol / phosphate buffer pH 2.5, read-out: Log D2.5 (Oct/buff) Result): 2.44; logD ([4]; 1-octanol / phosphate buffer pH 7.4, read-out: Log D7.4 (Oct/buff) Result): 2.43; solubility in n-octanol compared with PY-4Car, PY-4Car3C and DXD ([4]; different pH values (2.5 and 7.4)): belier solubility in n-octanol
CC[C@@]1(O)C(=O)OCc2c1cc1n(c2=O)Cc2c-1nc1cc(Cl)c(CN)c3c1c2CCC3 [PY-36, (S)-4-(aminomethyl) 5-chloro-9-ethyl-9-hydroxy-1,2,3,9,12,15-hexahydro-10 h,13 h-benzo[de]pyrano[3′,4′:6,7]indolizino[1,2-b]quinolin-10,13-dione]	–	–	1.5585	0.8758	1.1187	0.7619	0.6317	0.9857	0.4909	0.4500	1.3305	–	–
exatecan mesylate [PY-E, reference compound]	–	–	0.5103	0.1570	0.2303	0.3310	0.1086	0.2938	0.1376	0.1645	0.3581	–	IC50 on N87 cells, ratio to DXD (N87 gastric cancer cells; IC50 of PY-X (DXD) set to 1, values are ratios of measured IC50 to DXD, 144 h): 0.4782; IC50 on 468 cells, ratio to DXD ([1]; IC50 of PY-X (DXD) set to 1, values are ratios of measured IC50 to DXD): 0.3546; IC50 in H358 cells, ratio to DXD (H358 (NSCLC) cells): 0.2694; IC50 in H1975 cells, ratio to DXD (H1975 (NSCLC) cells): 0.0963; IC50 in H23 cells, ratio to DXD (H23 (NSCLC) cells): 0.1245; IC50 in FADU cells, ratio to DXD (FADU (HNSCC) cells): 0.4464; IC50 in OVCAR3 cells, ratio to DXD (OVCAR3 (Ovarian) cells): 0.2269; IC50 in PA-1 cells, ratio to DXD (PA-1 (Ovarian) cells): 0.3572
CC[C@@]1(O)C(=O)OCc2c1cc1n(c2=O)Cc2c-1nc1cc(F)c(CO)c3c1c2CCC3 [PY-10, (S)-9-ethyl-5-fluoro-9-hydroxy-4-(hydroxymethyl)-1,2,3,9,12,15-hexahydro-10H,13H-benzo[de]pyrano[3′,4′:6,7]indolizino[1,2-b]quinolin-10,13-dione]	–	–	0.1525	0.0456	0.1209	0.1540	0.0915	0.1546	0.0874	0.0792	0.2133	0.1968	–
